# System: Mycobacterium tuberculosis
# Assay: Antimycobacterial activity against Mycobacterium tuberculosis H37Rv ATCC 27294 after 28 days by agar dilution assay
# Format: functional
# Conditions: H37Rv ATCC 27294, 672 h
row,SMILES,MIC [µg/mL]
1,COc1cccc(-c2cn(C3CCCCc4ccccc43)nn2)c1 (stereo not drawn),3.12
2,CC(C)(C)c1ccc(-c2cn(C3CCCCc4ccccc43)nn2)cc1 (stereo not drawn),6.25
3,c1ccc(-c2cn(C3CCCCc4ccccc43)nn2)nc1 (stereo not drawn),12.5
4,Cc1ccc(-c2cn(C3CCCCc4ccccc43)nn2)cc1 (stereo not drawn),> 25
5,COc1ccc2cc(-c3cn(C4CCCCc5ccccc54)nn3)ccc2c1 (stereo not drawn),> 25
6,FC(F)(F)Oc1ccc(-c2cn(C3CCCCc4ccccc43)nn2)cc1 (stereo not drawn),> 25
7,NNC(=O)c1ccncc1 [ISONIAZID],0.1
8,CCCc1ccc(-c2cn(C3CCCCc4ccccc43)nn2)cc1 (stereo not drawn),> 25
9,c1ccc2c(c1)CCCCC2n1cc(-c2cc3ccccc3c3ccccc23)nn1 (stereo not drawn),> 25
10,c1cc(-c2cn(C3CCCCc4ccccc43)nn2)cc(-c2cn(C3CCCCc4ccccc43)nn2)c1 (stereo not drawn),6.25
11,c1ccc(-c2cn(C3CCCCc4ccccc43)nn2)cc1 (stereo not drawn),> 25
12,CCCCCCc1cn(C2CCCCc3ccccc32)nn1 (stereo not drawn),6.25
13,CCCCCc1ccc(-c2cn(C3CCCCc4ccccc43)nn2)cc1 (stereo not drawn),> 25
14,CO[C@H]1/C=C/O[C@@]2(C)Oc3c(C)c(O)c4c(O)c(c(/C=N/N5CCN(C)CC5)c(O)c4c3C2=O)NC(=O)/C(C)=C\C=C\[C@H](C)[C@H](O)[C@@H](C)[C@@H](O)[C@@H](C)[C@H](OC(C)=O)[C@@H]1C [RIFAMPIN],0.2
15,CC[C@@H](CO)NCCN[C@@H](CC)CO [ETHAMBUTOL],3.13
16,c1ccc2c(c1)CCCCC2n1cc(-c2ccsc2)nn1 (stereo not drawn),> 25
17,c1cncc(-c2cn(C3CCCCc4ccccc43)nn2)c1 (stereo not drawn),12.5
18,CCc1ccc(-c2cn(C3CCCCc4ccccc43)nn2)cc1 (stereo not drawn),> 25
